Tests used:
human tumour cell lines = experiment: Inhibition of colony formation (Example 18), cell line not given; assay type: cell-based; settings: 50 µM of the active substance; cell line not stated
Description: The investigation gives a precise information about the cell-damaging effect of the tested substance. In the case of cytostatics the cell-damaging effect is not cell-specific. […] One part of the arrested cells again go into the cycle, the other part may perish (apoptosis). […] The investigations were carried out on MCF-7 and MDA-MB-231 human mammary carcinoma cell lines, PC3 human prostate 15 carcinoma cell line and Ishikawa human endometrium carcinoma cell line. Three hundred cells were set into Petri dishes of 3.5 cm in diameter each. The treatment was carried out once, 24 hours following the explantation, then the colonies formed were counted after 9 to 12 days.

MDA-MB-231 xenograft = experiment: In vivo antitumour effect on MDA-MB-231 xenograft in immunosuppressed mice; set-up: species or system CBA/Ca mice
In short: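 Female CBA-Ca mice thymectomized, whole-body 60Co-irradiated a week later, given 3 to 5 x 10^5 myelocytes within 24 h, then implanted s.c. with MDA-MB-231 cells or tumour pieces. Treatment began in week 4 or 5 post-implant at 140-150 mm^3 or 0.165-0.194 cm^3; 7 animals per group, controls daily s.c. saline.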

[1] = MDA-MB-231 xenograft, after 9 week treatment, 100 µg daily s.c.
[2] = Table V, treatment week 2, 1x100 µg daily s.c.
[3] = Table V, treatment week 2, conjugates 1x50 µg daily s.c.
[4] = Table V, treatment week 6, 1x100 µg daily s.c.
[5] = Table V, treatment week 6, MI-1892 2x25 µg, conjugates 1x50 µg daily s.c.
[6] = week 0, daily s.c., 1 x 100 µg series
[7] = week 0, daily s.c., P-GFLG-1544 1 x 50 µg, P-GFLG-1892 1 x 75 µg
[8] = week 1, daily s.c., 1 x 100 µg series
[9] = week 1, daily s.c., P-GFLG-1544 1 x 50 µg, P-GFLG-1892 1 x 75 µg
[10] = week 2, daily s.c., 1 x 100 µg series
[11] = week 2, daily s.c., P-GFLG-1544 1 x 50 µg, P-GFLG-1892 1 x 75 µg
[12] = week 3, daily s.c., 1 x 100 µg series
[13] = week 3, daily s.c., P-GFLG-1544 1 x 50 µg, P-GFLG-1892 1 x 75 µg
[14] = week 4, daily s.c., 1 x 100 µg series
[15] = week 4, daily s.c., P-GFLG-1544 1 x 50 µg, P-GFLG-1892 1 x 75 µg
[16] = week 5, daily s.c., 1 x 100 µg series
[17] = week 5, daily s.c., P-GFLG-1544 1 x 50 µg, P-GFLG-1892 1 x 75 µg
[18] = week 6, daily s.c., 1 x 100 µg series
[19] = week 6, daily s.c., P-GFLG-1544 1 x 50 µg, P-GFLG-1892 1 x 75 µg

Substance: Ac-D-Trp^1,3,D-Cpa^2,{Lys(n-poly-(N-vinylpyrrolidone-co-maleic acid)-Gly-Phe-Leu-Gly]}^6,D-Ala^10-GnRH [P-GFLG-1544]
- inhibition on the colony formation / survival of the cells (human tumour cell lines): 100%
- animals that became tumour-free (MDA-MB-231 xenograft; MDA-MB-231 xenograft, 100 µg daily s.c., 6th week of treatment): 1 animals from 7
- Volume (cm^3) of tumours (MDA-MB-231 xenograft; [1]): 1.618 ± 0.518 cm^3
- Weight (g) of tumours (MDA-MB-231 xenograft; [1]): 0.94 ± 0.52 g
- tumour-free animals (MDA-MB-231 xenograft; MDA-MB-231 xenograft, end of the 6th week, first series): A tumour-free animal was found
- Inhibition % (MDA-MB-231 xenograft; [2]): 29%
- Tumour volume as control (%) (MDA-MB-231 xenograft; [2]): 71%
- Inhibition % (MDA-MB-231 xenograft; [3]): 23.5%
- Tumour volume as control (%) (MDA-MB-231 xenograft; [3]): 76.5%
- Inhibition % (MDA-MB-231 xenograft; [4]): 53%
- Tumour volume as control (%) (MDA-MB-231 xenograft; [4]): 47%
- Inhibition % (MDA-MB-231 xenograft; [5]): 40%
- Tumour volume as control (%) (MDA-MB-231 xenograft; [5]): 60%
- Tumour volume (cm^3) (MDA-MB-231 xenograft; [6]): 0.17 cm^3
- Tumour volume as control (%) (MDA-MB-231 xenograft; [6]): 101%
- Tumour volume (cm^3) (MDA-MB-231 xenograft; [7]): 0.15 cm^3
- Tumour volume as control (%) (MDA-MB-231 xenograft; [7]): 100%
- Tumour volume (cm^3) (MDA-MB-231 xenograft; [8]): 0.24 cm^3
- Tumour volume as control (%) (MDA-MB-231 xenograft; [8]): 105%
- Tumour volume (cm^3) (MDA-MB-231 xenograft; [9]): 0.21 cm^3
- Tumour volume as control (%) (MDA-MB-231 xenograft; [9]): 83%
- Tumour volume (cm^3) (MDA-MB-231 xenograft; [10]): 0.3 cm^3
- Tumour volume as control (%) (MDA-MB-231 xenograft; [10]): 72%
- Tumour volume (cm^3) (MDA-MB-231 xenograft; [11]): 0.21 cm^3
- Tumour volume as control (%) (MDA-MB-231 xenograft; [11]): 66%
- Tumour volume (cm^3) (MDA-MB-231 xenograft; [12]): 0.36 cm^3
- Tumour volume as control (%) (MDA-MB-231 xenograft; [12]): 65%
- Tumour volume (cm^3) (MDA-MB-231 xenograft; [13]): 0.24 cm^3
- Tumour volume as control (%) (MDA-MB-231 xenograft; [13]): 66%
- Tumour volume (cm^3) (MDA-MB-231 xenograft; [14]): 0.35 cm^3
- Tumour volume as control (%) (MDA-MB-231 xenograft; [14]): 53%
- Tumour volume (cm^3) (MDA-MB-231 xenograft; [15]): 0.28 cm^3
- Tumour volume as control (%) (MDA-MB-231 xenograft; [15]): 67%
- Tumour volume (cm^3) (MDA-MB-231 xenograft; [16]): 0.46 cm^3
- Tumour volume as control (%) (MDA-MB-231 xenograft; [16]): 49%
- Tumour volume (cm^3) (MDA-MB-231 xenograft; [17]): 0.33 cm^3
- Tumour volume as control (%) (MDA-MB-231 xenograft; [17]): 75%
- Tumour volume (cm^3) (MDA-MB-231 xenograft; [18]): 0.58 cm^3
- Tumour volume as control (%) (MDA-MB-231 xenograft; [18]): 47%
- Tumour volume (cm^3) (MDA-MB-231 xenograft; [19]): 0.36 cm^3
- Tumour volume as control (%) (MDA-MB-231 xenograft; [19]): 63%
- Tumour volume (cm^3) (MDA-MB-231 xenograft; week 7, daily s.c., 1 x 100 µg series): 0.75 cm^3
